Laboratory results: patent publication US20100144700A1, “HETEROCYCLIC-CARBONYL-DIAZABICYCLOALKANES AS MODULATORS OF THE NEURONAL NICOTINIC ACETYLCHOLINE ALPHA 4 BETA 2, SUBTYPE RECEPTOR FOR THE TREATMENT OF CNS RELATED DISORDERS” (TARGACEPT, INC., priority 2007, published 2010)

molecular target: T1, α7 nAChR Subtype (Rattus norvegicus, UniProt Q05941); experiment: Radioligand binding ([3H]MLA) at α7 nAChR subtype, rat hippocampus membranes; HTS at 5 μM; conditions: 5 μM compound, 5 nM 3H-MLA; read-out: α7 high throughput screening (HTS) binding
T1 construct: The hippocampus was removed and placed in 10 volumes (weight:volume) of ice-cold preparative buffer; from tissue; host or cells: rat hippocampus membranes
Method: Rats (female, Sprague-Dawley), weighing 150-250 g, were maintained on a 12 h light/dark cycle and were allowed free access to water and food supplied by PMI Nutrition International, Inc. Animals were anesthetized with 70% CO2, then decapitated. Brains were removed and placed on an ice-cold platform. The hippocampus was removed and placed in 10 volumes (weight:volume) of ice-cold preparative buffer (137 mM NaCl, 10.7 mM KCl, 5.8 mM KH2PO4, 8 mM Na2HPO4, 20 mM HEPES (free acid), 5 mM iodoacetamide, 1.6 mM EDTA, pH 7.4); PMSF, dissolved in methanol to a final concentration of 100 μM, was added and the tissue suspension was homogenized by Polytron. The homogenate was centrifuged at 18,000×g for 20 min at 4° C. and the resulting pellet was re-suspended in 10 volumes of ice-cold water. After 60 min incubation on ice, a new pellet was collected by centrifugation at 18,000×g for 20 min at 4° C. The final pellet was re-suspended in 10 volumes of buffer and stored at −20° C. On the day of the assay, tissue was thawed, centrifuged at 18,000×g for 20 min, and then re-suspended in ice-cold PBS (Dulbecco's Phosphate Buffered Saline, 138 mM NaCl, 2.67 mM KCl, 1.47 mM KH2PO4, 8.1 mM Na2HPO4, 0.9 mM CaCl2, 0.5 mM MgCl2, Invitrogen/Gibco, pH 7.4) to a final concentration of approximately 2 mg protein/mL. Protein was determined by the method of Lowry et al., J. Biol. Chem. 193: 265 (1951), using bovine serum albumin as the standard.
The binding of [^3H]MLA was measured using a modification of the methods of Davies et al., Neuropharmacol. 38: 679 (1999). [^3H]MLA (Specific Activity=25-35 Ci/mmol) was obtained from Tocris. The binding of [^3H]MLA was determined using a 2 h incubation at 21° C. Incubations were conducted in 48-well micro-titre plates and contained about 200 μg of protein per well in a final incubation volume of 300 μL. The incubation buffer was PBS and the final concentration of [^3H]MLA was 5 nM. The binding reaction was terminated by filtration of the protein containing bound ligand onto glass fiber filters (GF/B, Brandel) using a Brandel Tissue Harvester at room temperature. Filters were soaked in de-ionized water containing 0.33% polyethyleneimine to reduce non-specific binding. Each filter was washed with PBS (3×1 mL) at room temperature. Non-specific binding was determined by inclusion of 50 μM non-radioactive MLA in selected wells.
[…] Each concentration was replicated in triplicate. […] […] Pharmacol. 22: 3099-3108 (1973).

T1 sequence (Q05941 23-502): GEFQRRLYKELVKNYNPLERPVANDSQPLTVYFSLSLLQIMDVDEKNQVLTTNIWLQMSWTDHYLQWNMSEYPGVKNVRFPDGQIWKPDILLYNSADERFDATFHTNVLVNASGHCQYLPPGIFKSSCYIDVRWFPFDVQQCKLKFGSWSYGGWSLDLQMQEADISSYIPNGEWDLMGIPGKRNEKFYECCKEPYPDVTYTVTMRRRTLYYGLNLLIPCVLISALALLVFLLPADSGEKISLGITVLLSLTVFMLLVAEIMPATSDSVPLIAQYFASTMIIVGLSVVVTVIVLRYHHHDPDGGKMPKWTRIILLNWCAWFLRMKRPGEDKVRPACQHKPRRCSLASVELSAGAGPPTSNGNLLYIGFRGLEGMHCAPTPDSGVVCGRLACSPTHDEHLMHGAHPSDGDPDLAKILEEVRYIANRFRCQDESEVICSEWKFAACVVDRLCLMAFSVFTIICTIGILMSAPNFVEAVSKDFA

SMILES | inhibition at 5 µM
O=C(c1ccc(F)o1)N1C[C@@H]2CN[C@@H](C2)C1 | ≤ 50%
Cc1ccoc1C(=O)N1CC2CNC(C2)C1 (stereo not drawn) | ≤ 50%
CC(C)c1cc(C(=O)N2C[C@@H]3CN[C@@H](C3)C2)on1 | ≤ 50%
Cc1cc(C(=O)N2C[C@H]3CN[C@H](C3)C2)no1 | ≤ 50%
O=C(c1ccc(Br)o1)N1C[C@@H]2CN[C@@H](C2)C1 [drawing 16] | ≤ 50%
COc1cc(C(=O)N2C[C@@H]3CN[C@@H](C3)C2)on1 | ≤ 50%
O=C(c1ccncc1)N1CC2CNC(C2)C1 (stereo not drawn) | ≤ 50%
O=C(c1ccncc1)N1CC2CNCC1C2 (stereo not drawn) | ≤ 50%
Cc1ccoc1C(=O)N1CC2CNCC1C2 (stereo not drawn) | ≤ 50%
COc1cc(C(=O)N2CC3CNCC2C3)on1 (stereo not drawn) | ≤ 50%
O=C(c1ccc(Br)o1)N1C[C@H]2CN[C@H](C2)C1 | ≤ 50%
O=C(c1ccc(Cl)o1)N1C[C@@H]2CN[C@@H](C2)C1 | ≤ 50%
O=C(c1ccco1)N1CC2CCNC2C1 (stereo not drawn) | ≤ 50%
Cc1occc1C(=O)N1C[C@H]2CN[C@H](C2)C1 | ≤ 50%
O=C(c1ccco1)N1CC2CNCC1C2 (stereo not drawn) | ≤ 50%
O=C(c1cc(Cl)co1)N1C[C@@H]2CN[C@@H](C2)C1 | ≤ 50%
O=C(c1cc(Br)no1)N1CC2CNC(C2)C1 (stereo not drawn) | ≤ 50%
O=C(c1ccoc1)N1C[C@H]2CN[C@H](C2)C1 | ≤ 50%
O=C(c1cc(Br)no1)N1C[C@H]2CN[C@H](C2)C1 | ≤ 50%
Cc1nocc1C(=O)N1CC2CCNCC2C1 (stereo not drawn) | ≤ 50%
COc1cc(C(=O)N2CC3CNC(C3)C2)on1 (stereo not drawn) | ≤ 50%

same assay, conditions: [3H]MLA 5 nM, rat hippocampus

SMILES | Ki
O=C(c1ccco1)N1C[C@@H]2CN[C@@H](C2)C1 | 1020 nM

molecular target: T2, α4β2 nAChR Subtype (Rattus norvegicus, UniProt P09483+P12390); experiment: Radioligand binding ([3H]nicotine) at rat α4β2 nAChR subtype, rat cerebral cortex membranes; conditions: not given
T2 construct: The cerebral cortex was removed and placed in 20 volumes (weight:volume) of ice-cold preparative buffer; from tissue; host or cells: rat cerebral cortex membranes
Method: Rats (female, Sprague-Dawley), weighing 150-250 g, were maintained on a 12 h light/dark cycle and were allowed free access to water and food supplied by PMI Nutrition International, Inc. Animals were anesthetized with 70% CO2, then decapitated. Brains were removed and placed on an ice-cold platform. The cerebral cortex was removed and placed in 20 volumes (weight:volume) of ice-cold preparative buffer (137 mM NaCl, 10.7 mM KCl, 5.8 mM KH2PO4, 8 mM Na2HPO4, 20 mM HEPES (free acid), 5 mM iodoacetamide, 1.6 mM EDTA, pH 7.4); PMSF, dissolved in methanol to a final concentration of 100 μM, was added and the suspension was homogenized by Polytron. The homogenate was centrifuged at 18,000×g for 20 min at 4° C. and the resulting pellet was re-suspended in 20 volumes of ice-cold water. After 60 min incubation on ice, a new pellet was collected by centrifugation at 18,000×g for 20 min at 4° C. The final pellet was re-suspended in 10 volumes of buffer and stored at −20° C. On the day of the assay, tissue was thawed, centrifuged at 18,000×g for 20 min, and then re-suspended in ice-cold PBS (Dulbecco's Phosphate Buffered Saline, 138 mM NaCl, 2.67 mM KCl, 1.47 mM KH2PO4, 8.1 mM Na2HPO4, 0.9 mM CaCl2, 0.5 mM MgCl2, Invitrogen/Gibco, pH 7.4) to a final concentration of approximately 4 mg protein/mL. Protein was determined by the method of Lowry et al., J. Biol. Chem. 193: 265 (1951), using bovine serum albumin as the standard.
The binding of [^3H]nicotine was measured using a modification of the methods of Romano et al., Science 210: 647 (1980) and Marks et al., Mol. Pharmacol. 30: 427 (1986). The [^3H]nicotine (Specific Activity=81.5 Ci/mmol) was obtained from NEN Research Products. The binding of [^3H]nicotine was measured using a 3 h incubation at 4° C. Incubations were conducted in 48-well micro-titre plates and contained about 400 μg of protein per well in a final incubation volume of 300 μL. The incubation buffer was PBS and the final concentration of [^3H]nicotine was 5 nM. The binding reaction was terminated by filtration of the protein containing bound ligand onto glass fiber filters (GF/B, Brandel) using a Brandel Tissue Harvester at 4° C. Filters were soaked in de-ionized water containing 0.33% polyethyleneimine to reduce non-specific binding. Each filter was washed with ice-cold buffer (3×1 mL). Non-specific binding was determined by inclusion of 10 μM non-radioactive L-nicotine (Acros Organics) in selected wells.
The inhibition of [^3H]nicotine binding by test compounds was determined by including seven different concentrations of the test compound in selected wells. Each concentration was replicated in triplicate. IC50 values were estimated as the concentration of compound that inhibited 50 percent of specific [^3H]nicotine binding. Inhibition constants (Ki values), reported in nM, were calculated from the IC50 values using the method of Cheng et al., Biochem. Pharmacol. 22: 3099 (1973).

T2 sequence (P09483 31-630): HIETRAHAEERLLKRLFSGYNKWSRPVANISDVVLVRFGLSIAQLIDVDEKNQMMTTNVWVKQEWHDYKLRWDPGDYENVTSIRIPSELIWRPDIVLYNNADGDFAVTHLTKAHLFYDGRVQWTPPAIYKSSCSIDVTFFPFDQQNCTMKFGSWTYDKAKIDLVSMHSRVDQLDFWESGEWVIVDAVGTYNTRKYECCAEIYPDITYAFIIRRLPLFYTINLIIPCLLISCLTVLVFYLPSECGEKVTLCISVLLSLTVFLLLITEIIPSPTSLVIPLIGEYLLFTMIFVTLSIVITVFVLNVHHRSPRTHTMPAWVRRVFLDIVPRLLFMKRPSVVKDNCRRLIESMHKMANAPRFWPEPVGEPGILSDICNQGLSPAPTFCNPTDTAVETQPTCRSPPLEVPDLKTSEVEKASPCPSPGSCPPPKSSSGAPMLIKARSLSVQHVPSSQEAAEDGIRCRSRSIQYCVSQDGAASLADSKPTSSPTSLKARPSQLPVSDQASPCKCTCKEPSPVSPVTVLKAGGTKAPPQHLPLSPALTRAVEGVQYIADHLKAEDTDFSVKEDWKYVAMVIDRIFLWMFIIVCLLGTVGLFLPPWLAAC
T2 sequence (P12390 25-500): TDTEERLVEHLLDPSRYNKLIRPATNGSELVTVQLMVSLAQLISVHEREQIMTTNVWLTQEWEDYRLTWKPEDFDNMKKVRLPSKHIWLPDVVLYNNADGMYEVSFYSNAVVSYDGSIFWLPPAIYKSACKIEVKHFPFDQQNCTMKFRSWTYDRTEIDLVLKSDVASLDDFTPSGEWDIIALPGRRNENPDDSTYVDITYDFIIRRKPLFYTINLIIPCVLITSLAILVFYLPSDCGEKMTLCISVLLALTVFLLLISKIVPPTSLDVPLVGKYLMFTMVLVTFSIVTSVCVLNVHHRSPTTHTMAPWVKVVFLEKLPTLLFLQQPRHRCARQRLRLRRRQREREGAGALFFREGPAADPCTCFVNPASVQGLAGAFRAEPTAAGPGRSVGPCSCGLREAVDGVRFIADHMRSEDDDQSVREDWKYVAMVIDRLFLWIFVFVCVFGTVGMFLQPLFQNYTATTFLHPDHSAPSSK

SMILES | Ki
O=C(c1ccco1)N1C[C@@H]2CN[C@@H](C2)C1 | 40.9 nM
O=C(c1ccc(F)o1)N1C[C@@H]2CN[C@@H](C2)C1 | 9.3 nM
Cc1cc(C(=O)N2C[C@H]3CN[C@H](C3)C2)no1 | 14.8 nM
O=C(c1ccc(Br)o1)N1C[C@@H]2CN[C@@H](C2)C1 [drawing 16] | 38.5 nM
O=C(c1ccc(Br)o1)N1C[C@H]2CN[C@H](C2)C1 | 14.4 nM
O=C(c1ccc(Cl)o1)N1C[C@@H]2CN[C@@H](C2)C1 | 39.6 nM
Cc1occc1C(=O)N1C[C@H]2CN[C@H](C2)C1 | 17.3 nM
O=C(c1cc(Cl)co1)N1C[C@@H]2CN[C@@H](C2)C1 | 31.2 nM
O=C(c1cc(Br)no1)N1CC2CNC(C2)C1 (stereo not drawn) | 3.4 nM
O=C(c1ccoc1)N1C[C@H]2CN[C@H](C2)C1 | 10.6 nM
O=C(c1cc(Br)no1)N1C[C@H]2CN[C@H](C2)C1 | 3.5 nM
COc1cc(C(=O)N2CC3CNC(C3)C2)on1 (stereo not drawn) | 5 nM

same assay, conditions: [3H]nicotine 5 nM, rat cortex; read-out: Rat α4β2 Ki

SMILES | Ki
CC(C)c1cc(C(=O)N2C[C@@H]3CN[C@@H](C3)C2)on1 | 470 nM
COc1cc(C(=O)N2C[C@@H]3CN[C@@H](C3)C2)on1 | 367 nM
O=C(c1ccncc1)N1CC2CNCC1C2 (stereo not drawn) | 317 nM
Cc1ccoc1C(=O)N1CC2CNCC1C2 (stereo not drawn) | 139 nM
COc1cc(C(=O)N2CC3CNCC2C3)on1 (stereo not drawn) | 195 nM
O=C(c1ccco1)N1CC2CCNC2C1 (stereo not drawn) | 832 nM
Cc1nocc1C(=O)N1CC2CCNCC2C1 (stereo not drawn) | 882 nM

molecular target: Human α4β2 (Homo sapiens, UniProt P17787+P43681); experiment: Binding at human α4β2 subtype (Table 1); conditions: not given
Sequence (P43681 29-627 limits assumed): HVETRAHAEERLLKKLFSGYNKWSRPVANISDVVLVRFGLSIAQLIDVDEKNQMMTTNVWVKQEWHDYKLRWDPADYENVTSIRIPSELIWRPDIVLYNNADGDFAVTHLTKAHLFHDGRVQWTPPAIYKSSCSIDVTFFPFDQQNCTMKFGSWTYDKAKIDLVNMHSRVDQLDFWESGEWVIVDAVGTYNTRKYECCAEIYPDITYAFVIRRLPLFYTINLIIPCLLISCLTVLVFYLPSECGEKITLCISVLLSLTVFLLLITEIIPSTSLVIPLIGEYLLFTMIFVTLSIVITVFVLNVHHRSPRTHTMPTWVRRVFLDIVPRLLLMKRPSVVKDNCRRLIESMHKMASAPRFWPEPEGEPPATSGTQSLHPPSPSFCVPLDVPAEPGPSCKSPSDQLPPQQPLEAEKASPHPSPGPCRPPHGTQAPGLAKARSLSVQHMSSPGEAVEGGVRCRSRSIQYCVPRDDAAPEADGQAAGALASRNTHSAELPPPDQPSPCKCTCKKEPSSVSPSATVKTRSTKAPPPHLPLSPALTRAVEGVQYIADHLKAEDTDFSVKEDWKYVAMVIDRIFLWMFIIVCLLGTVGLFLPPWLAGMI
Sequence (P17787 26-502): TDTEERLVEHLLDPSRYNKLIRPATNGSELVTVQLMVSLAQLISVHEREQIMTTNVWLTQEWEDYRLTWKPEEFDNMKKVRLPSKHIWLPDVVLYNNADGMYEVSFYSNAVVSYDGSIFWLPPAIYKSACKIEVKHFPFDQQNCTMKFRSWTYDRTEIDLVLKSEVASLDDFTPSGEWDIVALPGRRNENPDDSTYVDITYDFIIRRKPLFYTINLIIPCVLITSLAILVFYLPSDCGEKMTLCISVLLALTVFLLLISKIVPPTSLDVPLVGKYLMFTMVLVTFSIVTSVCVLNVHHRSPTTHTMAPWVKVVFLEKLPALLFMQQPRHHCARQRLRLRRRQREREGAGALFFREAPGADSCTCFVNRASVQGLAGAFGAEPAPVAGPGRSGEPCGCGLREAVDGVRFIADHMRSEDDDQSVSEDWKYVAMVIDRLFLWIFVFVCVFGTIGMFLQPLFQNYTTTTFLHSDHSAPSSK

SMILES | Ki
COc1cc(C(=O)N2C[C@@H]3CN[C@@H](C3)C2)on1 | 95.4 nM
Cc1ccoc1C(=O)N1CC2CNCC1C2 (stereo not drawn) | 95.2 nM

same assay, conditions: read-out: Human α4β2 Ki

SMILES | Ki
O=C(c1ccco1)N1C[C@@H]2CN[C@@H](C2)C1 | 16.9 nM
O=C(c1ccc(F)o1)N1C[C@@H]2CN[C@@H](C2)C1 | 14.5 nM
Cc1ccoc1C(=O)N1CC2CNC(C2)C1 (stereo not drawn) | 3.4 nM
CC(C)c1cc(C(=O)N2C[C@@H]3CN[C@@H](C3)C2)on1 | 724 nM
Cc1cc(C(=O)N2C[C@H]3CN[C@H](C3)C2)no1 | 17.1 nM
O=C(c1ccc(Br)o1)N1C[C@@H]2CN[C@@H](C2)C1 [drawing 16] | 42.9 nM
O=C(c1ccncc1)N1CC2CNC(C2)C1 (stereo not drawn) | 29.7 nM
O=C(c1ccncc1)N1CC2CNCC1C2 (stereo not drawn) | 132 nM
COc1cc(C(=O)N2CC3CNCC2C3)on1 (stereo not drawn) | 306 nM
O=C(c1ccc(Br)o1)N1C[C@H]2CN[C@H](C2)C1 | 6.8 nM
O=C(c1ccc(Cl)o1)N1C[C@@H]2CN[C@@H](C2)C1 | 27.1 nM
O=C(c1ccco1)N1CC2CCNC2C1 (stereo not drawn) | 789 nM
Cc1occc1C(=O)N1C[C@H]2CN[C@H](C2)C1 | 10.9 nM
O=C(c1ccco1)N1CC2CNCC1C2 (stereo not drawn) | 217 nM
O=C(c1cc(Cl)co1)N1C[C@@H]2CN[C@@H](C2)C1 | 41.4 nM
O=C(c1cc(Br)no1)N1CC2CNC(C2)C1 (stereo not drawn) | 2.8 nM
O=C(c1ccoc1)N1C[C@H]2CN[C@H](C2)C1 | 10.5 nM
O=C(c1cc(Br)no1)N1C[C@H]2CN[C@H](C2)C1 | 1.8 nM
Cc1nocc1C(=O)N1CC2CCNCC2C1 (stereo not drawn) | 892 nM
COc1cc(C(=O)N2CC3CNC(C3)C2)on1 (stereo not drawn) | 3.7 nM
